# Reference: patent EP0380084A2, “Method for the inhibition of cell-cell and cell substratum interactions by the blocking of carbohydrate-carbohydrate interactions” (The Biomembrane Institute, priority 1989, dated 1990)
# Entries after “also recorded” stand apart in the source; their conditions may differ.
# Legend:
# [1] = test system: mouse teratocarcinoma F9 cells; experiment: F9 cell aggregation assay (microscopy and Coulter Counter count of single cells); format: cell-based; conditions: for numbers of free (i.e., nonaggregated) cells: Coulter Counter, semiquantitative (Figure 1, panel e), 2 mM LFP II or LFP III; for self-aggregation of F9 cells: PBS with Ca2+ and Mg2+, 50 mM EDTA, 2 mM LFP II, 2 mM LFP III (Figure 1, panels a-d)
# Procedure: More specifically, mouse teratocarcinoma F9 cells (Bernstine et al., Proc. Natl. Acad. Sci. USA 70:3899-3903, 1973) were grown on gelatin-coated plates in Dulbecco's modified Eagle's medium (DME) containing 4.5 g/l glucose and supplemented with 10% fetal calf serum (FCS) (v/v). The plates were prepared by incubating 0.01% gelatin in water for 30 min.
# F9 cells grown to confluency on gelatin-coated plates were harvested using standard trypsin/EDTA solution and washed in DME containing 10% FCS. Next, the cells were carefully resuspended in a PBS solution (containing 0.9 mM Ca²⁺, 0.5 mM Mg²⁺ and 0.1 mM Mn²⁺) and supplemented with 0.1% FCS. The cell samples were mixed carefully before pipetting, and both manual counting and counting with a Coulter Counter (Model ZBI, Coulter Electronics Inc., Hialeah, Fla.) were performed. Adjustments of the aperture on the Coulter Counter were made in order to correlate with the manual counting of the single cells, excluding aggregated cells. For aggregation assays, cells were adjusted to a concentration of about 2.6 x 10⁷/ml. After 1 hr at 37°C, 50 µl aliquots were mixed with 50 µl of ethylenediaminetetraacetic acid (EDTA), LFP II, or LFP III solutions, and cells were incubated for an additional 15 min at 37°C. […] Before measurements on the Coulter Counter, the 100 µl volume sample was diluted to 10 ml and mixed carefully. In experiments were photomicrographs of cells were taken, approximately 0.8 x 10⁶ cells were placed in different PBS solutions (final volume 100 µl) in small Petri dishes. The cell suspension was then covered by mineral oil and incubated at 37°C for 30-60 min, and the process of cell aggregation was observed under the microscope.
# The degree of F9 cell aggregation was semiquantitatively expressed by numbers of free (i.e., nonaggregated) cells (panel e), as determined by Coulter Counter with an appropriate aperture setting.
# Le^x glycolipid = experiment: Interaction of Le^x liposomes with Le^x glycolipid coated on a plastic surface; format: binding
# Procedure: A representative example of a carbohydrate-carbohydrate interaction is the recognition of Le^x(Galβ1 → 4[Fucα1 → 3]GlcNacβ1 → R) by Le^x per se. Le^x pentaosyl glycolipid (III³FucnLc₄) was prepared from human colonic adenocarcinoma.
# Le^x liposomes = experiment: Self-aggregation of Le^x liposomes; format: binding
# Procedure: A representative example of a carbohydrate-carbohydrate interaction is the recognition of Le^x(Galβ1 → 4[Fucα1 → 3]GlcNacβ1 → R) by Le^x per se. Le^x pentaosyl glycolipid (III³FucnLc₄) was prepared from human colonic adenocarcinoma. Within the present invention, Le^x is shown to be the structure recognizing Le^x. […] Fourth, the diffusability of tritium-labeled LFP III (from the lower to the upper Boyden chamber through a semipermeable membrane) was inhibited by Le^x liposomes. In addition, the Le^x-Le^x interaction was highly dependent on bivalent cations (Ca²⁺, Mg²⁺) and was inhibited by EDTA.
# [2] = test system: mouse T cell lymphoma L5178 AA12 cell line (high expressor of Gg3) to mouse B16 melanoma cell line (high expressor of GM₃); experiment: Adhesion of 3H-labeled L5178 AA12 lymphoma cells to B16 melanoma cell layer; format: cell-based; conditions: 10 mM EDTA, 5 mM sialyllactose, DH2 2 µg/ml, 2D4 5 µg/ml; 3H remaining after washing (Figure 2, panel c)
# Procedure: Mouse B16 melanoma cells (which express a high level of GM₃) were purchased from American Type Culture Collection (Rockville, MD).
# B16 cells (5x10⁴/ml), highly expressing GM₃, were grown on 24-well plates (Falcon, Oxnard, CA) for 24 hrs in DME. The majority of adherent cells were washed with serum-free medium. AA12 cells (Gg3 expressors) or AV27 cells (Gg3 non-expressors) were grown in DME containing 2% FCS, 1 g/l glucose, and 50 µCi ³H-GlcNH₂ for 24 hrs. The labeled AA12 (71,000 cpm/10⁵ cells) and AV27 (33,000 cpm/10⁵ cells) were then collected by centrifugation, suspended in DME containing 2% FCS and 1 g/l glucose, and the cell population adjusted to 6x10⁵/ml. This suspension (1 ml) was added to each well of a Falcon plate on which B16 melanoma cells were grown as adherent culture. The incubated plates were then washed 2x with serum-free fresh medium. L5178 lymphoma cells not adhering to B16 cells were washed out. The remaining cells in each plate were trypsinized, collected, and counted.
# B16 melanoma cells grown in 24-well plates and L5178 lymphoma cells were treated respectively with DH2 solution (2 µg/ml) and 2D4 solution (5 µg/ml), left for 30 min at room temperature, washed with serum-­free fresh DME, and incubated with lymphoma cell suspension and melanoma cell layer for 5 hrs.
# [3] = test system: mouse T cell lymphoma L5178 AV27 cell line to B16 cells; conditions: 10 mM EDTA; 3H remaining after washing (Figure 2, panel c)
# Procedure: Mouse B16 melanoma cells (which express a high level of GM₃) were purchased from American Type Culture Collection (Rockville, MD). Expression of GM₃ by B16 cells was defined by MAb DH2 (Dohi et al., Cancer Res. 48:5680-5685, 1988). Mouse T cell lymphoma line L5178 AA12 (which express a high level of Gg3, defined by MAb 2D4; Young et al., J. Exp. Med. 150:1008-1019, 1979) was cloned from 1C1 (Young et al., J. Immunol. 126:1-6, 1981). […] All cells were grown in RPMI 1640 containing 10% FCS.
# B16 cells (5x10⁴/ml), highly expressing GM₃, were grown on 24-well plates (Falcon, Oxnard, CA) for 24 hrs in DME. The majority of adherent cells were washed with serum-free medium. AA12 cells (Gg3 expressors) or AV27 cells (Gg3 non-expressors) were grown in DME containing 2% FCS, 1 g/l glucose, and 50 µCi ³H-GlcNH₂ for 24 hrs. The labeled AA12 (71,000 cpm/10⁵ cells) and AV27 (33,000 cpm/10⁵ cells) were then collected by centrifugation, suspended in DME containing 2% FCS and 1 g/l glucose, and the cell population adjusted to 6x10⁵/ml. This suspension (1 ml) was added to each well of a Falcon plate on which B16 melanoma cells were grown as adherent culture. The incubated plates were then washed 2x with serum-free fresh medium. L5178 lymphoma cells not adhering to B16 cells were washed out. The remaining cells in each plate were trypsinized, collected, and counted. […]
# Gg3/GM₃ interaction = conditions: antibody: pretreatment of the Gg3-coated solid phase
compound,measurement,setting,value
CC(=O)NC1C(OC2C(O)C(CO)OC(OC3C(CO)OC(O)C(O)C3O)C2O)OC(CO)C(OC2OC(CO)C(O)C(O)C2O)C1OC1OC(C)C(O)C(O)C1O (stereo not drawn) [LFP III],"numbers of free (i.e., nonaggregated) cells",[1],increased greatly
same,self-aggregation of F9 cells,[1],aggregation was inhibited
same,interaction of Le^x liposomes with immobilized Le^x glycolipid,Le^x glycolipid,specifically inhibited
same,self-aggregation of Le^x liposomes,Le^x liposomes,specifically inhibited
sialyllactose,Adhesion of AA12 cells on B16 melanoma,[2],markedly inhibited
CC(=O)N[C@H]1[C@H](O[C@H]2[C@@H](O)[C@@H](CO)O[C@@H](O[C@H]3[C@H](O)[C@@H](O)C(O)O[C@@H]3CO)[C@@H]2O)O[C@H](CO)[C@@H](O[C@@H]2O[C@@H](C)[C@@H](O)[C@@H](O)[C@@H]2O)[C@@H]1O[C@@H]1O[C@H](CO)[C@H](O)[C@H](O)[C@H]1O (stereo partly drawn) [LFP II],"numbers of free (i.e., nonaggregated) cells",[1],much less
same,self-aggregation of F9 cells,[1],aggregation of F9 cells; also recorded: not by LFP II
"O=C(O)CN(CCN(CC(=O)O)CC(=O)O)CC(=O)O [EDTA, ethylenediaminetetraacetic acid]",self-aggregation of F9 cells,[1],aggregation did not occur; also recorded: inhibited
same,Adhesion of AA12 cells on B16 melanoma,[2],greatly suppressed
same,Le^x-Le^x interaction,"Le^x glycolipid; dependent on bivalent cations (Ca2+, Mg2+)",inhibited
same,Adhesion of AV27 cells to B16 cells,[3],greatly suppressed
same,interaction of Gg3-coated solid phase with GM₃-containing liposomes,Gg3/GM₃ interaction,inhibited
